Test results as given in publication doi:10.1101/630459v1 (bioRxiv, 2019).
Marks after values point to notes of the source that are not given here. Blank lines part the entries; values can stand above or below the molecule they belong to.

Tests used:
Format in all cases: in vivo, BALB/cAnNRj mice
active caspase-3 = experiment: Indirect immunohistochemistry of active caspase-3 in organ cryosections
Blood parameter analysis = experiment: Blood parameter analysis
Serum parameter analysis = experiment: Serum parameter analysis
[1] = cisplatin 20 mg/kg BW i.p. once, day 3, n = 3, mean ± SD
[2] = cisplatin 20 mg/kg BW i.p. once, d1, mean, n = 3
[3] = cisplatin 20 mg/kg BW i.p. once, d2, mean, n = 12
[4] = cisplatin 20 mg/kg BW i.p. once, d3, mean, n = 5
[5] = cisplatin 20 mg/kg BW i.p. once, d2, mean, n = 8
[6] = cisplatin 20 mg/kg BW i.p. once, d2, mean, n = 9
[7] = cisplatin 20 mg/kg BW i.p. once, d3, mean, n = 4
[8] = doxorubicin 4 mg/kg BW i.p. day 0, 7, 14, day 15, n = 3, mean ± SD
[9] = doxorubicin 4 mg/kg BW i.p. day 0, 7, 14, day 15, n = 4, mean ± SD
[10] = doxorubicin 4 mg/kg BW i.p., d8, mean, n = 3
[11] = doxorubicin 4 mg/kg BW i.p., d15, mean, n = 4
[12] = busulfan 18.8 mg/kg i.p. day 0, 2, 4, day 5, n = 5, mean ± SD
[13] = busulfan 18.8 mg/kg i.p., d3, mean, n = 6
[14] = busulfan 18.8 mg/kg i.p., d5, mean, n = 11
[15] = busulfan 18.8 mg/kg i.p., d5, mean, n = 10

SMILES: N.N.[Cl][Pt][Cl] [Cisplatin]
caspase-3 activation, kidneys (active caspase-3; cisplatin 20 mg/kg BW i.p. once, day 2, n = 3, mean ± SD): 1.0 ± 0.1 % area
caspase-3 activation, liver (active caspase-3; [1]): 4.3 ± 0.7 % area
caspase-3 activation, lungs (active caspase-3; [1]): 0.5 ± 0.1 % area
caspase-3 activation, spleen (active caspase-3; cisplatin 20 mg/kg BW i.p. once, day 3, n = 4, mean ± SD): 10.5 ± 4.8 % area
HCT (Blood parameter analysis; [2]): 43.5** %
HGB (Blood parameter analysis; [2]): 15.9* g/dL
PLT (Blood parameter analysis; [2]): 797 10^3/µl
RBC (Blood parameter analysis; [2]): 10.23 10^6/µl
WBC (Blood parameter analysis; [2]): 5.63 10^3/µl
HCT (Blood parameter analysis; [3]): 40.5%
HGB (Blood parameter analysis; [3]): 15.08 g/dL
RBC (Blood parameter analysis; [3]): 9.45 10^6/µl
WBC (Blood parameter analysis; [3]): 4.85** 10^3/µl
HCT (Blood parameter analysis; [4]): 41.6%
HGB (Blood parameter analysis; [4]): 15.38 g/dL
PLT (Blood parameter analysis; [4]): 1147** 10^3/µl
RBC (Blood parameter analysis; [4]): 9.81e+06 µL⁻¹
WBC (Blood parameter analysis; [4]): 3.68** 10^3/µl
ALT (Serum parameter analysis; [2]): 58 U/L
AST (Serum parameter analysis; [2]): 122 U/L
CK (Serum parameter analysis; [2]): 180.7 U/L
Creatinine (Serum parameter analysis; [2]): 16.67 µmol/L
Urea (Serum parameter analysis; [2]): 6.32 mmol/L
ALT (Serum parameter analysis; [5]): 88.88 U/L
AST (Serum parameter analysis; [5]): 200* U/L
CK (Serum parameter analysis; [6]): 372.6 U/L
Creatinine (Serum parameter analysis; [6]): 27.67** µmol/L
Urea (Serum parameter analysis; [6]): 15.09* mmol/L
ALT (Serum parameter analysis; [7]): 63.5 U/L
AST (Serum parameter analysis; [7]): 183.8 U/L
CK (Serum parameter analysis; [7]): 586.3* U/L
Creatinine (Serum parameter analysis; [7]): 22.25 µmol/L
Urea (Serum parameter analysis; [7]): 11.08 mmol/L

caspase-3 activation, liver (active caspase-3; [8]): 3.5 ± 1.5 % area
caspase-3 activation, lungs (active caspase-3; [8]): 0.7 ± 0.1 % area
caspase-3 activation, heart (active caspase-3; [9]): 2.2 ± 0.7 % area
caspase-3 activation, kidneys (active caspase-3; [9]): 1.1 ± 0.3 % area
caspase-3 activation, lungs (active caspase-3; doxorubicin 4 mg/kg BW i.p., day 8, n = 3, mean ± SD): 0.6 ± 0.2 % area
HCT (Blood parameter analysis; [10]): 41.2%
PLT (Blood parameter analysis; [10]): 1011 10^3/µl
RBC (Blood parameter analysis; [10]): 9.62 10^6/µl
WBC (Blood parameter analysis; [10]): 9.2 10^3/µl
HCT (Blood parameter analysis; [11]): 34.1*** %
PLT (Blood parameter analysis; [11]): 1.106e+06 µL⁻¹
RBC (Blood parameter analysis; [11]): 7.98*** 10^6/µl
WBC (Blood parameter analysis; [11]): 6.5 10^3/µl
CK (Serum parameter analysis; [10]): 109.7 U/L
Creatinine (Serum parameter analysis; [10]): 15.33* µmol/L
Urea (Serum parameter analysis; [10]): 7.73 mmol/L
CK (Serum parameter analysis; [11]): 195.3* U/L
Creatinine (Serum parameter analysis; [11]): 16.25** µmol/L
Urea (Serum parameter analysis; [11]): 7 mmol/L
SMILES: COc1cccc2c1C(=O)c1c(O)c3c(c(O)c1C2=O)C[C@@](O)(C(=O)CO)C[C@@H]3O[C@H]1C[C@H](N)[C@H](O)[C@H](C)O1 [Doxorubicin]
ALT (Serum parameter analysis; [10]): 90.33** U/L
AST (Serum parameter analysis; [10]): 94.67 U/L
ALT (Serum parameter analysis; [11]): 52.25 U/L
AST (Serum parameter analysis; [11]): 96.5 U/L

caspase-3 activation, liver (active caspase-3; [12]): 3.0 ± 0.1 % area
caspase-3 activation, lungs (active caspase-3; [12]): 0.4 ± 0.1 % area
HCT (Blood parameter analysis; [13]): 42.0%
HGB (Blood parameter analysis; [13]): 15.2 g/dL
PLT (Blood parameter analysis; [13]): 849.3 10^3/µl
RBC (Blood parameter analysis; [13]): 9.79 10^6/µl
WBC (Blood parameter analysis; [13]): 4730 µL⁻¹
HCT (Blood parameter analysis; [14]): 35.2%
HGB (Blood parameter analysis; [14]): 13.3 g/dL
PLT (Blood parameter analysis; [14]): 1.175e+06 µL⁻¹
RBC (Blood parameter analysis; [14]): 8.32 10^6/µl
WBC (Blood parameter analysis; [14]): 4940 µL⁻¹
CK (Serum parameter analysis; [13]): 141.5 U/L
Creatinine (Serum parameter analysis; [13]): 11.17 µmol/L
Urea (Serum parameter analysis; [13]): 7.81 mmol/L
CK (Serum parameter analysis; [15]): 160.2 U/L
Creatinine (Serum parameter analysis; [15]): 12.6 µmol/L
Urea (Serum parameter analysis; [15]): 7.19 mmol/L
SMILES: CS(=O)(=O)OCCCCOS(C)(=O)=O [Busulfan]
ALT (Serum parameter analysis; [13]): 55.33 U/L
AST (Serum parameter analysis; [13]): 82.5 U/L
ALT (Serum parameter analysis; [15]): 87.1 U/L
AST (Serum parameter analysis; [15]): 84.4 U/L
